Experiments:
Experiment in all cases: relative viability (nuclei count vs DMSO), 5 days (fraction); higher = more cells survive
[1] = compound: C1CC(C1)(C(=O)O)C(=O)O.[NH2-].[NH2-].[Pt+2] [Carboplatin] + Nc1ncn([C@H]2C[C@H](O)[C@@H](CO)O2)c(=O)n1 [Decitabine] (partner 2 µM)
In short: (§1)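 Lung cancer cell lines in 1536-well plates got either a single drug or a fixed anchor-drug dose together with five library-drug doses (not always all listed) in √10 steps, by pin tool, on the day after seeding. Nuclei were counted after 5 days, and relative viability is the treated-to-vehicle ratio of nuclei counts. Values are medians of duplicate plates.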

[2] = compound: CC[C@H](C)N1C=C(C2=C(C=C(C=C21)C3=CN=C(C=C3)N4CCNCC4)C(=O)NCC5=C(C=C(NC5=O)C)C)C [GSK126] + O=C(c1cc(Cc2n[nH]c(=O)c3ccccc23)ccc1F)N1CCN(C(=O)C2CC2)CC1 [Olaparib] (partner 8 µM)
In short: as §1

[3] = compound: NS(=O)(=O)OC[C@@H]1C[C@@H](n2ccc3c(N[C@H]4CCc5ccccc54)ncnc32)C[C@@H]1O [MLN4924] + C[C@@H](Oc1cc(-c2cnn(C3CCNCC3)c2)cnc1N)c1c(Cl)ccc(F)c1Cl [Crizotinib] (partner 1 µM)
In short: as §1

[4] = compound: NS(=O)(=O)OC[C@@H]1C[C@@H](n2ccc3c(N[C@H]4CCc5ccccc54)ncnc32)C[C@@H]1O [MLN4924] + C[C@]1(O)C[C@@H](c2nc(-c3ccc4ccc(-c5ccccc5)nc4c3)c3c(N)nccn32)C1 [Linsitinib] (partner 1 µM)
In short: as §1

Row | Cell Line | relative viability ([1]; first compound 0.08 µM) | relative viability ([1]; first compound 0.253 µM) | relative viability ([1]; first compound 0.8 µM) | relative viability ([1]; first compound 2.53 µM) | relative viability ([1]; first compound 8 µM) | relative viability ([2]; first compound 0.08 µM) | relative viability ([2]; first compound 0.253 µM) | relative viability ([2]; first compound 0.8 µM) | relative viability ([2]; first compound 2.53 µM) | relative viability ([2]; first compound 8 µM) | relative viability ([3]; first compound 0.04 µM) | relative viability ([3]; first compound 0.1265 µM) | relative viability ([3]; first compound 0.4 µM) | relative viability ([3]; first compound 1.265 µM) | relative viability ([3]; first compound 4 µM) | relative viability ([4]; first compound 0.04 µM) | relative viability ([4]; first compound 0.1265 µM) | relative viability ([4]; first compound 0.4 µM) | relative viability ([4]; first compound 1.265 µM) | relative viability ([4]; first compound 4 µM)
1 | NCI-H2087 | 0.242 | 0.28 | 0.307 | 0.227 | 0.237 | 0.62 | 0.6 | 0.683 | 0.752 | 0.788 | 0.696 | 0.802 | 0.411 | 0.224 | 0.139 | 0.775 | 0.776 | 0.311 | 0.172 | 0.187
2 | NCI-H2126 | 0.607 | 0.573 | 0.544 | 0.59 | 0.51 | 0.963 | 0.957 | 0.884 | 0.916 | 0.915 | 0.912 | 0.911 | 0.789 | 0.397 | 0.256 | 0.747 | 0.69 | 0.576 | 0.327 | 0.391
3 | NCI-H2347 | 0.615 | 0.428 | 0.621 | 0.653 | 0.552 | 0.562 | 0.524 | 0.529 | 0.581 | 0.62 | 0.525 | 0.53 | 0.484 | 0.42 | 0.412 | 0.908 | 0.731 | 0.57 | 0.424 | 0.41
4 | NCI-H2405 | 0.705 | 0.784 | 0.809 | 0.659 | 0.442 | 0.887 | 0.84 | 0.844 | 0.89 | 0.744 | 0.797 | 0.667 | 0.478 | 0.266 | 0.242 | 1.09 | 1.12 | 0.686 | 0.246 | 0.245
5 | NCI-H3122 | 0.49 | 0.433 | 0.437 | 0.397 | 0.436 | 0.713 | 0.712 | 0.628 | 0.654 | 0.628 | 0.369 | 0.338 | 0.358 | 0.178 | 0.153 | 0.958 | 0.429 | 0.291 | 0.172 | 0.115
6 | PC-3 [JPC-3] | 0.835 | 0.75 | 0.795 | 0.734 | 0.7 | 1.1 | 1.14 | 1.09 | 1.15 | 1.12 | 0.986 | 0.909 | 0.477 | 0.34 | 0.293 | 0.975 | 0.923 | 0.679 | 0.383 | 0.386
7 | PC-14 | 0.179 | 0.209 | 0.165 | 0.119 | 0.0887 | 0.348 | 0.295 | 0.335 | 0.354 | 0.396 | 0.872 | 0.888 | 0.591 | 0.161 | 0.109 | 0.975 | 0.79 | 0.366 | 0.143 | 0.144
8 | RERF-LC-KJ | 0.627 | 0.665 | 0.646 | 0.574 | 0.422 | 0.935 | 0.979 | 1.04 | 0.826 | 0.83 | 0.786 | 0.471 | 0.225 | 0.221 | 0.207 | 0.64 | 0.463 | 0.198 | 0.188 | 0.234
9 | SK-LU-1 | 0.719 | 0.677 | 0.625 | 0.586 | 0.46 | 0.555 | 0.452 | 0.45 | 0.396 | 0.482 | 0.951 | 0.802 | 0.236 | 0.182 | 0.201 | 0.747 | 0.443 | 0.19 | 0.181 | 0.216
10 | SK-MES-1 | 0.419 | 0.415 | 0.345 | 0.341 | 0.341 | 0.798 | 0.787 | 0.721 | 0.724 | 0.657 | 1.02 | 0.842 | 0.702 | 0.228 | 0.22 | 0.976 | 0.825 | 0.35 | 0.215 | 0.207
11 | SW 1573 | 0.493 | 0.524 | 0.587 | 0.4 | 0.26 | 0.609 | 0.542 | 0.582 | 0.621 | 0.49 | 0.802 | 0.734 | 0.748 | 0.0862 | 0.0778 | 0.928 | 0.766 | 0.389 | 0.0982 | 0.0789

Reference: the supplement of paper PMC10307832
